Measured values from PMC11933534, “Favipiravir induces HuNoV viral mutagenesis and infectivity loss with clinical improvement in immunocompromised patients” (Clinical Immunology (Orlando, Fla.), 2024).

Columns and labels:
Assay type in all cases: in vivo
Mx = assay: Innate immune gene expression in HuNoV-infected zebrafish larvae: Mx; conditions: tizoxanide 4 ng; HuNoV GII.4 Sydney[P16]; day 2 pi; p = 0.0403
Method: (§1) To generate the cDNA, the ImProm-II Reverse Transcription System (Promega, Madison, WI, USA) was used. Briefly, a total of 1 μg (ca. 8 μL) of extracted RNA was added to 2 μL of random hexamers and incubated at 70 °C for 5 min, followed by 5 min at 4 °C. To this reaction mix a total volume of 30 μL containing 8 μL of Improm II 5× reaction buffer, 6 mM MgCl2, 0.5 mM deoxynucleoside triphosphate, 40 units of RNase inhibitor, 2 μL of Improm II reverse transcriptase, followed by an incubation at 25 °C for 5 min, 37 °C for 1 h, and 72 °C for 15 min. A qPCR was performed with 4 μL template cDNA using the SsoAdvanced Universal SYBR green supermix, 600 nM of forward and reverse primers for IRF-1, Mx and the housekeeping genes 18 s, β-actin, and ef1a. Primer sequences were as previously described [[65], [66], [67], [68]]. Cycling conditions were as follows; polymerase activation at 95 °C for 3 min followed by 40 cycles of denaturation at 95 °C for 15 s, annealing at 55 °C and extension at 72 °C for 30 s (Quantstudio 5, ThermoFisher Scientific, Waltham, MA, USA). Data was normalized to the housekeeping genes and compared to DMSO-injected zebrafish larvae infected with HuNoV to determine the fold induction of the expression, according to the Livak method.

zebrafish larvae = assay: Toxicity analysis in zebrafish larvae
Method: (§2) First, compounds were dissolved in 100% DMSO (spectroscopy grade). To determine the correct dose for pericardial injections in zebrafish larvae of all compounds (i.e. favipiravir, tizoxanide and their 1:1 combination), a weight-dependent conversion was applied. For this purpose, the optimized and increased clinical dose of 400 mg favipiravir TDS and 200 mg tizoxanide BD was used. To ensure the weight-converted dose was not toxic for zebrafish larvae of 3 days post fertilization, a toxicity analysis was performed. […] The following parameters were investigated: touch response, morphology, posture, oedema, signs of necrosis, swim bladder and heartbeat.

HuNoV GII.4 Sydney[P16] = assay: Antiviral treatment of HuNoV-infected zebrafish larvae (viral RNA by RT-qPCR)
Method: as §2
Zebrafish larvae were anesthetized and positioned as described previously, in short: zebrafish larvae of 3 days post fertilization were anesthetized and transferred to an agarose mold to position them on their dorsal side with the yolk facing upward. In every experiment, the injection needle was calibrated to ensure the precision of the injection volume. Microinjection was performed using an M3301R Manual Micromanipulator (WPI, Friedberg, Germany) and a FemtoJet 4i pressure microinjector (Eppendorf, Hamburg, Germany). Compound-treated zebrafish larvae received a 1 nL (1.5 nL in case of the combination treatment) injection of compound in the pericardial cavity, while negative control zebrafish were injected with an equal volume of DMSO. Subsequently, the zebrafish larvae received an injection of 3 nL virus in the yolk. After both injections, zebrafish larvae were transferred to 6-well plates with Danieau's solution and further maintained in an incubator with a 14/10 h light/dark cycle at 32 °C.
Zebrafish larvae were homogenized (Precellys 24, Bertin Technologies, Montigny-le-Bretonneux, France), the homogenates were cleared by centrifugation (5 min, 9000 g), and RNA was extracted using the Direct-zol RNA kit (Zymo Research, Irvine, CA, USA), according to the manufacturer's protocol. RNA levels were quantified with a one-step RT-qPCR (iTaq Universal Probes One-Step Kit, Bio-Rad, Hercules, CA, USA) as previously described.

IRF-1 = assay: Innate immune gene expression in HuNoV-infected zebrafish larvae: IRF-1; conditions: tizoxanide 4 ng; HuNoV GII.4 Sydney[P16]; day 2 pi; p = 0.023
Method: as §1

**Q.** For O=C(Nc1ncc([N+](=O)[O-])s1)c1ccccc1O [tizoxanide], which “Fold increase in Mx expression vs untreated (DMSO) infected larvae” value (Mx) is on record?
**A.** 9 fold

**Q.** What about the “Toxicity in the zebrafish larval model” value (zebrafish larvae; 25 ng favipiravir or 4 ng tizoxanide, drug administered alone) of the same molecule?
**A.** did not show toxicity

**Q.** What about the “Toxicity in the zebrafish larval model” value (zebrafish larvae; tizoxanide 6 ng) of the same molecule?
**A.** signs of toxicity, including heart oedema, necrosis and spine curvature

**Q.** What about the “Reduction of HuNoV replication” value (HuNoV GII.4 Sydney[P16]; monotherapy favipiravir 25 ng or tizoxanide 4 ng, in-house GII.4 Sydney[P16] stool sample, peak 2 dpi, p = 0.0006 and 0.001) of the same molecule?
**A.** > 1 log10

**Q.** What about the “Effect on HuNoV replication” value (HuNoV GII.4 Sydney[P16]; tizoxanide 4 ng alone, inoculum SS A, p > 0.05) of the same molecule?
**A.** no significant effect

**Q.** And the “Fold increase in IRF-1 expression vs untreated (DMSO) infected larvae” value (IRF-1)?
**A.** 4 fold
